Reference: PMC6305398, “Red Fluorescent Chlamydia trachomatis Applied to Live Cell Imaging and Screening for Antibacterial Agents” (Frontiers in Microbiology, 2018)
“Also recorded” adds a separate entry of the source. Where two headings read alike, the source gives them in different places.

Assays:
[1] = tested on: mCherry expressing C. trachomatis serovar L2 454/Bu; test: Primary screen of natural compound library, Chlamydia inclusion count (mCherry imaging and FITC immunostaining in duplicate plates); format: cell-based, Chlamydia trachomatis; conditions: Chlamydia trachomatis, 10 μM, 48 hpi, HeLa cells, vs DMSO control
Protocol: A general and more detailed protocol for the screening assay is provided in (Supplementary Data Sheet 1) and an overview of the screening method is given in Figure 3. Since inhalation of C. trachomatis aerosols can cause laboratory acquired infections (Sewell, [1995]), all procedures involving handling of live infection in open plates were performed manually inside a class II safety cabinet using 8-channel electronic pipets (Rainin E4 XLS, Mettler Toledo, Barcelona, Spain) and an enclosed aspiration system (Intergra VacuSafe, Zizers, Switzerland).
The primary screen of the 349 open access compound library was performed using the mCherry expressing C. trachomatis serovar L2 454/Bu in clear, flat 96-well plates (Nunc, Delta surface, Thermo Fischer Scientific). The primary screen was done in duplicates in separated plates; one plate was used for mCherry imaging and the other for FITC immunostaining. Cells were seeded at a density of 10,000 cells per well in 100 μl DMEM media 1 day prior to infection in culture media. Chlamydia infection was performed in 30 μl HBSS as described above with a MOI of 0.6 during 1 h at 37°C, 5% CO2. Compounds were diluted to 10 μM in DMEM with a final DMSO concentration of 0.5% and 100 μl per well was added after aspiration of HBSS. The plates were incubated for an additional 47 h at 37°C, 5% CO2 prior to imaging. One of the duplicate plates was used for mCherry imaging and one for FITC immunostaining. For mCherry imaging, HeLa cell nuclei were first stained by addition of 10 μl […] Hoechst per well and incubated at 37°C with 5% CO2 for 20 min. The infected cells were fixed in 4% paraformaldehyde (PFA) for 15 min and washed in PBS before image acquisition. Although fixation was not necessary for the analysis, it inactivated the infectious Chlamydia and enabled later analysis after storage at 4°C. For FITC immunostaining, cells were fixed in 150 μl methanol per well for 10 min, blocked in 1% BSA, 0.25% Tween-20 in PBS and incubated with 1:1,000 polyclonal rabbit anti-chlamydial serum in blocking buffer (Marwaha et al., [2014]). A FITC-conjugated donkey anti-rabbit antibody (Jackson ImmunoResearch) and 1 μg/ml Hoechst staining was used for staining followed by washing with blocking buffer. Images of nuclei (Hoechst-ex386/23 nm) and Chlamydia inclusions (FITC: ex485/20 nm; mCherry: ex549/15 nm) were acquired in the ArrayScan with the 10x objective and counted with the built in software. Chlamydia inclusions in DMSO control wells were used to determine an inclusion size cutoff to exclude small underdeveloped inclusions as well as fluorescent artifacts from the analyses.

[2] = tested on: mCherry expressing C. trachomatis; test: EC50 determination, large inclusion count in infected HeLa cells, FITC immunostaining; format: cell-based; conditions: Chlamydia trachomatis, read-out: EC50 (95% confidence values)
Protocol: (§1) HeLa cells were inoculated into 96-well plates (Nunc, Corning, New York, USA) with a density of 15,000 cells per well and cultured overnight at 37°C with 5% CO2 in RPMI 1640, supplemented with 10% FBS and 2 mM L-glutamine, and infected the following day with wt or mCherry C. trachomatis in HBSS. At 1 hpi, the inoculum was replaced with RPMI media containing 0.5% DMSO and serial 1:2 dilutions of the tested compounds. The infection was allowed to proceed for 44–48 h before fixation by aspiration of the media and adding methanol for 5 min. Chlamydia inclusions were immunostained as described above. The numbers of large inclusions were counted by the ArrayScan VTI HCS automated scanner. Inhibition of Chlamydia growth was evaluated as the number of inclusions in compound treated infections (evaluated in 12 fields per well, 20x objective) compared to the numbers of inclusions in DMSO treated control infections (% of control). EC50 values are representative of at least three independent experiments. The data analysis was performed using non-linear regression (curve fit) in GraphPad Prism v.5.

in vitro = format: cell-based; conditions: human, 48 h, percent of DMSO control; for viability at 50 µM: read-out: HeLa cell viability at 50 μM (%) (converted); for viability at 25 µM: read-out: HeLa cell viability at 25 μM (%)
Protocol: (§2) HeLa299 cells were inoculated into clear, flat 96-well plates (Nunc, Delta surface, Thermo Fischer Scientific) with a density of 7,000 cells per well and cultured overnight at 37°C with 5% CO2 in […] supplemented with 10% FBS and 2 mM L-glutamine. The following day, the RPMI was replaced with DMEM without phenol red (Life Technologies, Carlsbad, CA, USA) containing 0.5% DMSO with or without test compounds at 25 and 50 μM concentrations incubated at 37°C with 5% CO2 for 48 h. At least three replicate wells for each compound concentration were tested. Wells without cells were used as blank controls. Following this incubation with compounds, cells were washed with DMEM to remove remaining colored compounds and fresh DMEM without phenol red was added before the XTT Cell Proliferation Assay kit was used according to the manufacturer's instructions (ATCC, Manassas, VA, USA). Briefly, activation reagent and XTT reagent were thawed at 37°C, then mixed in a 1:50 ratio with enough volume to add 50 μL to each well. The plates were placed in the 37°C incubator for 2.5 h. The absorbance of each well was then read at 475 nm and 660 nm with a Tecan Infinite m200 plate reader (Tecan, Männedorf, Switzerland). To analyze the data, the 660 nm reading was subtracted from the 475 nm reading to help eliminate non-specific readings from the assay results. Average blank control-well readings were subtracted from those containing cells. Final readings from wells containing compound were compared to DMSO control wells and expressed as percent of control.

HeLa cells = test: in vitro; format: cell-based; conditions: non-toxic = viability not below 70% of vehicle control at 25 μM
Protocol: as §2

wt C. trachomatis = test: EC50 determination, large inclusion count in infected HeLa cells, FITC immunostaining; format: cell-based, Chlamydia trachomatis; conditions: wt strain, 44-48 h; for EC50: Chlamydia trachomatis, read-out: EC50 (95% confidence values)
Protocol: as §1

mammalian cells = conditions: ref Davis et al., 2013; cited from earlier work
[3] = tested on: mCherry transformed C. trachomatis; test: Live real time imaging of C. trachomatis infection (time-lapse 24-72 hpi); format: cell-based, Chlamydia trachomatis; conditions: HeLa cells
Protocol: The anti-chlamydial effect over time of compound 6 (identified in the above screen) was visualized by a time-lapse experiment. HeLa cells were seeded at a concentration of 10,000 cells per well 1 day prior to infection. Chlamydia infection was performed as described above at MOI 0.6 with mCherry transformed C. trachomatis. Phenol red free DMEM culture media containing 6 or 3 μM 6 or 0.5% DMSO was added at 100 μl per well 1 hpi. Images were acquired with 1 h intervals with the 10x objective acquiring 4 fields per well during 48 h. The red channel was used for autofocusing and therefore imaging was initialized 24 hpi when the mCherry expressing inclusions were detectable, continuing to 72 hpi.

[4] = ref Davis et al., 2013; cited from earlier work
[5] = MOI 0.6, FITC immunostaining, read-out: Screen inhibition at 10 μM (%) FITC
[6] = MOI 0.6, mCherry detection, read-out: Screen inhibition at 10 μM (%) mCherry

With COCCNC1=CC(=O)c2c(O)c3c(c(O)c2C1=O)C[C@](C)(O)C[C@@H]3O [Compound 1] the inhibition at 10 µM [1, 5] was 100%, the inhibition at 10 µM [1, 6] was 100% and the EC50 [2] was 2.8 µM. For the same compound, the viability at 50 µM (in vitro) was 58.5%, the “Toxicity to HeLa cells (authors' call)” value (HeLa cells) was “non-toxic” and the EC50 (wt C. trachomatis) was 5.3 µM. For the same compound, the “EC50 (95% confidence values)” value (wt C. trachomatis) was “low micromolar”.
In the case of C[C@]1(O)Cc2c(O)c3c(c(O)c2[C@@H](O)C1)C(=O)C=C(NCCc1ccccc1)C3=O [Compound 2], the inhibition at 10 µM [1, 5] is reported as 100%, the inhibition at 10 µM [1, 6] is reported as 66% and the viability at 25 µM (in vitro) is reported as ≥ 70%. The viability at 50 µM (in vitro) was 31%, the “Toxicity to HeLa cells (authors' call)” value (HeLa cells) was “non-toxic” and the EC50 (wt C. trachomatis) was 23 µM.
In the case of C[C@]1(O)Cc2c(O)c3c(c(O)c2[C@@H](O)C1)C(=O)C=C(NCCc1ccc(O)cc1)C3=O [Compound 3], the inhibition at 10 µM [1, 5] is reported as 100%, the viability at 25 µM (in vitro) is reported as 41 ± 2.5% and the viability at 50 µM (in vitro) is reported as 24%. For the same compound, the “Toxicity to HeLa cells (authors' call)” value (HeLa cells) was “toxic”.
In the case of C[C@]1(O)Cc2c(O)c3c(c(O)c2[C@@H](O)C1)C(=O)C=C(NCCN1CCOCC1)C3=O [Compound 4], the inhibition at 10 µM [1, 5] is reported as 100%, the inhibition at 10 µM [1, 6] is reported as 98% and the viability at 25 µM (in vitro) is reported as ≥ 70%. For the same compound, the viability at 50 µM (in vitro) was 74%, the “Toxicity to HeLa cells (authors' call)” value (HeLa cells) was “non-toxic” and the EC50 (wt C. trachomatis) was 20.8 µM.
In the case of NCCc1c[nH]c2c1C(=O)C1=C(NCCS1(=O)=O)C2=O [Compound 6], the “Toxicity in mammalian cells” value (mammalian cells) is listed as “non-toxic”, the inhibition at 10 µM [1, 5] is listed as 100% and the inhibition at 10 µM [1, 6] is listed as 100%. The EC50 [2] was 1.7 µM, the viability at 25 µM (in vitro) was 77 ± 0.2% and the viability at 50 µM (in vitro) was 55%. The “Toxicity to HeLa cells (authors' call)” value (HeLa cells) was “non-toxic”, the EC50 (wt C. trachomatis) was 2.8 µM and the “Growth of red fluorescent Chlamydia inclusions in live imaging” value ([3]; 3 μM, compared to DMSO control) was “grew at a slower pace; also recorded: continuous growth reduction”. The “Red fluorescent Chlamydia inclusions in live imaging” value ([3]; 6 μM) was “not detectable” and the “In vitro antimalarial effect, active concentrations” value [4] was “low nanomolar concentrations”.
Compound CC(=O)NCCc1c[nH]c2c1C(=O)C1=C(NC=CS1(=O)=O)C2=O [Compound 7] has an inhibition at 10 µM [1, 5] of 100%, an inhibition at 10 µM [1, 6] of 99% and a viability at 25 µM (in vitro) of 17 ± 2%. The viability at 50 µM (in vitro) was 6% and the “Toxicity to HeLa cells (authors' call)” value (HeLa cells) was “toxic”.
Work on CC(C)(C)NC(=O)NCCc1c[nH]c2c1C(=O)C1=C(NC=CS1(=O)=O)C2=O [Compound 8] yielded an inhibition at 10 µM [1, 5] of 100%, an inhibition at 10 µM [1, 6] of 100% and a viability at 25 µM (in vitro) of 30 ± 7%. The viability at 50 µM (in vitro) was 11% and the “Toxicity to HeLa cells (authors' call)” value (HeLa cells) was “toxic”.
For CCCCNC(=O)NCCc1c[nH]c2c1C(=O)C1=C(NC=CS1(=O)=O)C2=O [Compound 9], the inhibition at 10 µM [1, 5] was 100%, the inhibition at 10 µM [1, 6] was 100% and the viability at 25 µM (in vitro) was 37 ± 6.5%. For the same compound, the viability at 50 µM (in vitro) was 11.5% and the “Toxicity to HeLa cells (authors' call)” value (HeLa cells) was “toxic”.
